Calls of active or inactive are those of the source.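 The calls were made as follows: active = fitted curve reaches a 40% rise in fluorescent cells at or below the top valid dose; inactive = opposite-direction effect, or the rest.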

One assay is described as follows: autofluorescent compounds in non-GFP fibroblasts, dose response, artefact control for X-chromosome reactivation project, imaging, mTEFS fibroblasts, cherry-pick (AID 743396).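 Also: raw share of Hoechst-counted cells scored GFP positive without control normalization.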 Particulars: mTEFS fibroblasts autofluorescence, GFP-channel imaging, 3 days; at 19.5 µM (top of the series).
As for `O=[N+]([O-])c1ccc(O)c([N+](=O)[O-])c1`, the % fluorescent cells increase was 0% (inactive). For the molecule `COP(=S)(OC)Oc1ccc(Sc2ccc(OP(=S)(OC)OC)cc2)cc1`, the % fluorescent cells increase is 0.075% (inactive).

For the molecule `COC(=O)Cn1cc(/C=C2\C(=O)NC(=O)N(c3ccc(OC)cc3)C2=O)c2ccccc21`, the % fluorescent cells increase was 0.304% (inactive).

Still in this assay, the particulars now being: mTEFS fibroblasts autofluorescence, GFP-channel imaging, 3 days; at 19.5 µM (top of the series); cells pretreated with 5-aza-dC.
As for `CC(C)C(NC(=O)c1ccc(F)cc1)C(=O)NCC1CCCO1` (stereo not drawn), the % fluorescent cells increase was 0.01% (inactive). The same measure, in the same setting: then `CC(=O)c1ccc(NS(=O)(=O)c2ccc(N/C=C/C(=O)c3ccc(F)cc3)cc2)cc1`, with 0% (inactive); and `COc1ccccc1/C=C/C(=O)OCCCN(C)C`, with 0% (inactive); and `COc1ccccc1C(=O)Nc1nnc(S(=O)(=O)N2CCCCCC2)s1`, with 0.055% (inactive). Turning to `COc1ccc(NC(=O)C(=O)NCCC2CCCCN2S(=O)(=O)c2cccs2)cc1` (stereo not drawn), the % fluorescent cells increase was 2.33% (inactive). Consider `CCc1ccc(C(=O)NNc2ccc(S(N)(=O)=O)cc2)cc1`, for which the % fluorescent cells increase was -0.004% (inactive). Still for that read-out and setting: as for `CC(=O)C1=NN(c2ccc(Cl)cc2)C(c2ccc3c(c2)OCO3)N(C(C)=O)N1C` (stereo not drawn), the figure is -0.011% (inactive); as for `COc1cccc(CNC(=O)c2cc(S(=O)(=O)N3CCCC3)cn2C)c1`, 0% (inactive). For the molecule `CCC(C(=O)Nc1cc(OC)c(NC(=O)c2ccccc2)cc1OC)c1ccccc1` (stereo not drawn), the % fluorescent cells increase was 0.022% (inactive). `N=c1ccn2c(n1)OC1C(O)C(CO)OC12` (stereo not drawn): the % fluorescent cells increase is -0.006% (inactive). Same read-out and setting: as for `COc1ccc(NC(=O)Nc2ccc3c(c2)C(=O)N([C@@H](C)CO)C[C@H](C)[C@@H](CN(C)S(=O)(=O)c2ccc(OC)cc2)O3)cc1`, the figure is 0% (inactive); as for `COc1ccc(-c2ccc(C#N)c(SCC(=O)NCc3ccco3)n2)cc1OC`, 0% (inactive). On the same count and under the same terms, as for `CCn1c(Cl)c(C=O)s/c1=N\S(=O)(=O)c1ccccc1`, the figure is 0% (inactive); as for `COc1ccc(N(CC(=O)Nc2nccs2)S(=O)(=O)c2c(C)[nH]c(=O)[nH]c2=O)cc1`, 0% (inactive); as for `COc1ccc(CCCc2nc3ccccc3[nH]2)cc1`, -0.011% (inactive). In the case of `Nc1cc2c3c(cccc3c1)C(=O)N(CCN1CCCC1)C2=O`, the % fluorescent cells increase is -0.003% (inactive). `C[C@H](CO)N1C[C@H](C)[C@H](CN(C)Cc2ccccc2)Oc2ccc(NS(C)(=O)=O)cc2C1=O`: the % fluorescent cells increase is 0.123% (inactive). Same read-out and setting: then `CCOC(=O)c1cnc(-c2ccc(C(F)(F)F)cn2)[nH]c1=O`, with 11.4% (inactive); and `CCOC(=O)Nc1ccc2nc(-c3cscn3)[nH]c2c1`, with 0.274% (inactive). Still for that read-out and setting: as for `C[C@@H]1CN(C)C(=O)Cc2cc(N(C)C)ccc2O[C@@H]1CN(C)S(C)(=O)=O`, the figure is 0.125% (inactive); as for `Cc1c(CN2CCCC(C(=O)c3cccc(OC(C)C)c3)C2)c(=O)n(-c2ccccc2)n1C` (stereo not drawn), 0.037% (inactive).

Take `CN1OC[C@@H]2CN(Cc3ccccc3)[C@H](c3cccc(N4CCOCC4)c3)C[C@@H]21`: the % fluorescent cells increase was 0.013% (inactive). Regarding `C[C@H](NC(=O)C[C@@H]1CC[C@H](NC(=O)Cc2ccccn2)[C@@H](CO)O1)c1ccccc1`, the % fluorescent cells increase was 0.048% (inactive). Same read-out and setting: then `CCOC(=O)[C@]12CCC=C1N(Cc1ccccc1)C(=O)[C@H](CC(=O)N1CCSCC1)C2`, with 0.038% (inactive); and `CC(=O)Nc1sc(N/N=C/c2ccc(N(C)C)cc2)nc1-c1ccc(C)cc1`, with -0.004% (inactive). As to `Cc1cc(=O)[nH]c(N/N=C/c2cc(C)n(-c3ccccc3)c2C)n1`, the % fluorescent cells increase was 0% (inactive). The same measure, in the same setting: then `O=C1N(c2ccccc2)C[C@@H]2C[C@@H](c3cc4ccccc4o3)N3CCC[C@@]123`, with -0.007% (inactive). On the same count and under the same terms, then `COc1cc(CN2CCC(C(=O)NCC(C)(C)CN(C)C)CC2)ccc1OCc1ccccc1`, with 0.013% (inactive); and `Cc1cc(NC(=O)c2ccccc2)n(-c2nc3ccccc3[nH]2)n1`, with 0.023% (inactive). On the same count and under the same terms, then `Cc1ccc(S(=O)(=O)N2CCOCC2)cc1C(=O)OCC(=O)NC1CCS(=O)(=O)C1` (stereo not drawn), with 0.086% (inactive). `Cc1onc(-c2c(Cl)cccc2Cl)c1-c1nc2cc(Cl)ccc2c(=O)o1`: the % fluorescent cells increase was -0.011% (inactive). Same read-out and setting: then `O=C(COC(=O)/C=C/c1cccc(C(F)(F)F)c1)NC(=O)NCc1ccco1`, with 0.351% (inactive). Take `CC(=O)Nc1sc(C)c(C)c1C(=O)OCC(=O)Nc1cc(S(C)(=O)=O)ccc1Cl`: the % fluorescent cells increase is 0.274% (inactive). The same measure, in the same setting: then `COc1cc(NC(C)CCc2ccccc2)cc(OC)c1OC` (stereo not drawn), with 0% (inactive). Same read-out and setting: as for `O=C(O)c1cccnc1C(=O)N1CCc2c([nH]c3ccccc23)C1C(F)(F)F` (stereo not drawn), the figure is 0.447% (inactive); as for `COc1ccc(OC)c(NC(=O)Nc2ccc3[nH]ccc3c2)c1`, 0% (inactive); as for `CC(C)c1ccc(N2C(=O)/C(=C/N(C)C)SC2=S)cc1`, 0.026% (inactive). Still for that read-out and setting: as for `NNC(=O)/C(=C\c1ccc(Br)cc1)NC(=O)c1cccs1`, the figure is 0.233% (inactive). For the molecule `CC1C=NC(S(=O)(=O)N2CC[C@@H]3[C@@H](CO)N(C)c4ccc(-c5ccccc5)cc4[C@@H]32)=N1` (stereo partly drawn), the % fluorescent cells increase is 0% (inactive).

For the molecule `COc1ccc(NS(=O)(=O)c2ccc(NC(C)=O)cc2)nn1`, the % fluorescent cells increase is -0.003% (inactive). Still for that read-out and setting: then `COC(=O)c1ccc(-n2c(C)cc(C(=O)COC(=O)C3=COCCO3)c2C)cc1`, with -0.007% (inactive); and `CCC1Oc2ccc(C)cc2N(CC(=O)N2CCCC2)C1=O` (stereo not drawn), with 0.001% (inactive). Still for that read-out and setting: then `Cc1ccc(Cn2ccsc2=NC(=O)CCl)cc1`, with 0% (inactive). Take `CC[C@]12c3[nH]c4cc(CCC(=O)N(C)C)ccc4c3CCN1C(=O)[C@@H](CC(=O)NCCC1=CCCCC1)C[C@@H]2C(=O)N1CCN(C(=O)c2ccco2)CC1`: the % fluorescent cells increase was 0.051% (inactive). Same read-out and setting: then `CCOc1cccc(/C=N/NC(=S)Nc2cc(S(=O)(=O)N3CCOCC3)ccc2N2CCOCC2)c1O`, with 0% (inactive); and `OC[C@@H]1Nc2ccc(C#Cc3ccccc3)cc2[C@H]2[C@@H]1CCN2Cc1nccs1`, with 0.018% (inactive). On the same count and under the same terms, as for `CCOC(=O)CSc1nnc(CCCCCN2C(=O)c3cccc4cccc(c34)C2=O)o1`, the figure is 0.071% (inactive); as for `CCc1ccc(CCC(=O)Nc2ncc(Cc3ccccc3Cl)s2)o1`, -0.007% (inactive). The same measure, in the same setting: as for `CN1c2ccc(-c3ccc(C#N)cc3)cc2[C@@H]2[C@@H](CCN2C(=O)NC2CCCCC2)[C@H]1CO`, the figure is 0.092% (inactive). In the case of `CN(C1CCCCC1)S(=O)(=O)c1ccc(C(=O)N2CCN(c3nc4ccccc4s3)CC2)cc1`, the % fluorescent cells increase was -0.007% (inactive). In the case of `CCOc1ccc(C(=O)c2cc([N+](=O)[O-])ccc2N2CCOCC2)cc1`, the % fluorescent cells increase was 0% (inactive). Same read-out and setting: as for `Nc1c(-c2ccccc2)c(CN2CCOCC2)nn1-c1ccc(C(=O)O)cc1`, the figure is 0% (inactive); as for `Cc1ccc(S(=O)(=O)Nc2ccc3c(c2)C(=O)N([C@@H](C)CO)C[C@@H](C)[C@@H](CN(C)Cc2ccc(C(=O)Nc4ccccc4N)cc2)O3)cc1`, 0% (inactive); as for `CC(=O)c1cccc(-c2ccc3c(c2)C(C)(Cc2ccc(S(C)(=O)=O)cc2)C(=O)N3)c1` (stereo not drawn), 0% (inactive). For the molecule `Cn1c(=O)c2[nH]c(-c3ccc(S(=O)(=O)O)cc3)nc2n(C)c1=O`, the % fluorescent cells increase is 0.085% (inactive). With `O=C(COC(=O)COc1cccc(C(F)(F)F)c1)NC1CCS(=O)(=O)C1` (stereo not drawn), the % fluorescent cells increase was 0.015% (inactive).

On to `COC(=O)c1c(NC(=O)c2ccc(C)cc2)csc1C`, for which the % fluorescent cells increase is -0.006% (inactive). Regarding `Nc1ccccc1C#CC(=O)c1ccccc1`, the % fluorescent cells increase is 0% (inactive). As to `N/C(=N\OC(=O)C12CC3CC(CC(C3)C1)C2)c1ccncc1`, the % fluorescent cells increase is -0.004% (inactive). The same measure, in the same setting: as for `Cc1nn(-c2ccccc2)c(C)c1N`, the figure is 0% (inactive); as for `CSc1ccc(CNCC2CCCO2)cc1` (stereo not drawn), 0.293% (inactive); as for `COc1ccc(N2C(=O)C3CCCN3C2c2cccc(OC)c2)cc1` (stereo not drawn), 0.021% (inactive). For the molecule `COc1ccc2c3c(n(C)c2c1)[C@H](CO)N(C(=O)CN1CCOCC1)CC31CCN(C(=O)Nc2cccc(F)c2)CC1`, the % fluorescent cells increase is 0% (inactive). Still for that read-out and setting: then `C[C@@H]1CN([C@H](C)CO)C(=O)c2cc(NC(=O)Nc3ccc4c(c3)OCO4)ccc2O[C@@H](C)CCCCO[C@@H]1CN(C)C(=O)Cc1ccccc1`, with 0.027% (inactive); and `O=C(NC1=NN(c2ccccc2)CC1)Nc1ccccc1F`, with -0.002% (inactive); and `CCCN(C)C[C@@H]1OCc2cnnn2CCCC(=O)N([C@H](C)CO)C[C@H]1C`, with 0.007% (inactive). Still for that read-out and setting: then `O=C(O)CSc1ncccn1`, with 0.143% (inactive); and `CC(=O)N/C(N)=N/c1nc(=O)c2ccccc2s1`, with 0.24% (inactive); and `C[C@H](CO)N1C[C@H](C)[C@H](CN(C)C(=O)Nc2ccc(F)cc2)Oc2ncc(C#Cc3cccc(F)c3)cc2C1=O`, with -0.166% (inactive).

Still in this assay, the particulars now being: mTEFS fibroblasts autofluorescence, GFP-channel imaging, 3 days; at 21 µM (top of the series); cells pretreated with 5-aza-dC.
Regarding `COc1ccc(S(=O)(=O)N(C)C[C@@H]2OCc3cn(nn3)CCCC(=O)N([C@@H](C)CO)C[C@@H]2C)cc1`, the % fluorescent cells increase was 0.036% (inactive).

Values taken from PubChem BioAssay AID743396 (Broad Institute, 2014).
